# According to BindingDB's records for patent WO2025064535 (Deep Apple Therapeutics, 2025):
# Assays:
# [1] = biological target: T1, Mas-related G-protein coupled receptor member X2 (Homo sapiens, UniProt Q96LB1); assay: MRGPRX2 Activity Assay
# T1 sequence (Q96LB1 whole entry): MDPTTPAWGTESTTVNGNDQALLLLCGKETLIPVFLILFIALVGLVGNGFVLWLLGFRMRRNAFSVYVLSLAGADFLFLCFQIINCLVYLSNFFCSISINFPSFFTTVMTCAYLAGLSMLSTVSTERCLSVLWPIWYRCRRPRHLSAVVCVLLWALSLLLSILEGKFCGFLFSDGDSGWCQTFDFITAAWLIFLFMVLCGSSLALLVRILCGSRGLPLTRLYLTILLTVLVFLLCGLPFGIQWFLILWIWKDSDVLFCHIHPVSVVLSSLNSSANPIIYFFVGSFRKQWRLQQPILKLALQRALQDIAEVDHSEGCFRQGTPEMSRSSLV
# Protocol: FlpIn TRex-MRGPRX2-HEK293 cells (herein TRex-MRPGRX2-HEK) stably transfected to express human MRGPRX2 were maintained at 37 °C with 5% CO2 and grown in DMEM supplemented with 10% FBS, 1% L-Glutamate, 1% penicillin/streptomycin, 100ug/mL Hygromycin B, and 15 µg/mL Blasticidin. GOI (MRGPRX2) expression was induced with 100ng/mL of Doxycycline 18-24 hours prior to experiment, in flask. On the day of experiment, cells were lifted with TripLE Express and seeded in 384-well white walled opaque bottomed, assay plates, at 8,000 cells per well in 5 µL freshly made assay buffer (HBSS, 20 mM HEPES, 0.1% BSA and 10 mM LiCl). Compounds solubilized in 100% DMSO at 30 mM were serially diluted (1:4) first in 100% DMSO, and an intermediate plate of assay buffer was used to establish a final top concentration of 30 µM (in assay plate). Final DMSO concentration was kept constant at 1% across assay plates. Cortistatin-14, at 30 mM stock concentration was solubilized in HBSS + 0.1% BSA, stored at -20°C in 5 µL aliquots and discarded after one freeze-thaw cycle. […] Antagonist equilibrium was established with 30 minutes preincubation, followed by no wash, direct addition, and stimulation of agonist for 1 hour at 37 °C / 5% CO2. IP-1 standards and HTRF detection reagents were added according to the IP-one Gq kit protocol purchased from CisBio (part number 62IPAPEJ). The plate was read on an EnVision XCite plate reader. The HTRF ratio was then calculated from raw data (channel1/channel2 ×10,000) and analyzed using either GraphPad Prism or a custom Python script to calculate IC50 using Log[Antagonist] vs. response (4 parameter) nonlinear regression.
# [2] = biological target: T1, Mas-related G-protein coupled receptor member X2; assay: LAD2 Degranulation Assay (Protocol 2)
# Protocol: LAD-2 cells were maintained at 37 °C with 5% CO2 and grown in complete StemPro-34 media supplemented with 1% L-Glutamate, 1% penicillin/streptomycin, and 250 ng/mL human SCF. 18-24 hours prior to experiment, LAD-2 cells were collected and transferred to growth media without SCF. […] For dose-response assays, compounds solubilized in 100% DMSO at 30 mM were serially diluted (1:3) first in 100% DMSO, and 2 intermediate dilutions with assay buffer were used to establish a final top concentration of 3 ^M (in assay plate). […] Final DMSO concentration was kept constant at 0.1% across plates for all assays. Cortistatin-14 at 30 mM stock concentration was solubilized in HBSS + 0.1% BSA, stored at -20°C in 5 ^L aliquots and discarded after one freeze-thaw cycle. Final concentration of agonist used in both dose-response and single point assays was 0.5 ^M, prepared in assay buffer. Antagonist equilibrium was established with 2 h preincubation, followed by no wash, direct addition, and stimulation of agonist for 30 minutes at 37 °C. For detection of ^-hexosaminidase activity, assay plates were centrifuged and 5 ^L of cell-free supernatant from each assay well was transferred to a black-walled black-bottomed 384-well plate. Substrate solution (1 mM 4-Methylumbelliferyl N-acetyl-β-D-glucosaminide in citrate buffer, pH=4.5, 15 ^l) was added to each well and plates were incubated for 1 hour at 37 °C. […] Background-subtracted data was analyzed using either GraphPad Prism or a custom Python script to calculate IC50 using either Log[Antagonist] vs. response (4 parameter) nonlinear regression (dose-response assays).
# [3] = biological target: T1, Mas-related G-protein coupled receptor member X2; assay: LAD2 Degranulation Assay (Protocol 1)
# Protocol: LAD-2 cells were maintained at 37 °C with 5% CO2 and grown in complete StemPro-34 media supplemented with 1% L-Glutamate, 1% penicillin/streptomycin, and 250 ng/mL human SCF. On the day of experiment, cells were collected by centrifugation and seeded in 384-well assay plates, at 4,000 cells per well in 10 ^l freshly made assay buffer (10 mM HEPES, 130 mM NaCl, 5 mM KCl, 1.8 mM CaCl2, 1.0 mM MgCl2, 5.6 mM glucose, 0.1% BSA, pH = 7.40). For dose-response assays, compounds solubilized in 100% DMSO at 30 mM were serially diluted (1:3) first in 100% DMSO, and 2 intermediate dilutions with assay buffer were used to establish a final top concentration of 3 ^M (in assay plate). Final DMSO concentration was kept constant at 0.1% across plates for all assays. Cortistatin-14 at 30 mM stock concentration was solubilized in HBSS + 0.1% BSA, stored at -20°C in 5 ^L aliquots and discarded after one freeze-thaw cycle. Final concentration of agonist used in both dose-response and single point assays was 1 ^M, prepared in assay buffer. Antagonist equilibrium was established with 30 minute preincubation, followed by no wash, direct addition, and stimulation of agonist for 30 minutes at 37 °C. For detection of ^-hexosaminidase activity, assay plates were centrifuged and 5 ^l of cell-free supernatant from each assay well was transferred to a black-walled black-bottomed 384-well plate. Substrate solution (1 mM 4-Methylumbelliferyl N-acetyl-β-D-glucosaminide in citrate buffer, pH=4.5, 15 ^l) was added to each well and plates were incubated for 1 hour at 37 °C. […] Background-subtracted data was analyzed using either GraphPad Prism or a custom Python script to calculate IC50 using either Log[Antagonist] vs. response (4 parameter) nonlinear regression (dose-response assays).
Structure (SMILES),IC50 [1],IC50 [2],IC50 [3]
"C[C@@H](C(=O)Nc1nc2cc3c(cc2s1)CCC3)N1CCC(F)(F)[C@H](c2ccc(=O)[nH]c2)C1 [WO2025064535, Compound 28]",18 nM,144 nM,–
"C[C@@H](C(=O)Nc1nc2cc3c(cc2s1)OCCO3)N1CCC(F)(F)[C@@H](c2ccc(=O)[nH]c2)C1 [WO2025064535, Compound 29]",8.6 nM,20 nM,–
"C[C@@H](C(=O)Nc1nc2cc3c(cc2s1)OC(F)(F)O3)N1CCC(F)(F)[C@H](c2ccc(=O)[nH]c2)C1 [WO2025064535, Compound 32]",15 nM,27 nM,–
"C[C@@H](C(=O)Nc1nc2cc3c(cc2s1)OC(F)(F)O3)N1CCC(F)(F)[C@@H](c2c[nH]c(=O)cn2)C1 [WO2025064535, Compound 34]",14 nM,52 nM,–
"C[C@@H](C(=O)Nc1nc2cc3c(cc2s1)OC(F)(F)O3)N1CC[C@H](F)[C@@H](c2cc[n+]([O-])cc2)C1 [WO2025064535, Compound 38]",32 nM,72 nM,–
"C[C@@H](C(=O)Nc1nc2cc3c(cc2s1)OCCO3)N1CCC(F)(F)[C@H](c2c[nH]c(=O)cn2)C1 [WO2025064535, Compound 41]",5.9 nM,23 nM,–
"C[C@@H](C(=O)Nc1nc2cc3c(cc2s1)OC(F)(F)O3)N1CCC(F)(F)[C@H](c2c[nH]c(=O)c([C@@H](O)CO)c2)C1 [WO2025064535, Compound 43]",11 nM,7.4 nM,–
"C[C@@H](C(=O)Nc1nc2cc3c(cc2s1)OC(F)(F)O3)N1CCC[C@@H](c2cc[n+]([O-])cc2)C1 [WO2025064535, Compound 49]",> 30000 nM,> 3000 nM,–
"C[C@@H](C(=O)Nc1nc2cc3c(cc2s1)OC(F)(F)O3)N1CCC(F)(F)[C@H](c2cc[n+]([O-])c([C@H](O)CO)c2)C1 [WO2025064535, Compound 54]",7.8 nM,6.6 nM,–
"C[C@H](C(=O)Nc1nc2cc3c(cc2s1)OCO3)N1CCC(F)(F)[C@@H](c2cc[n+]([O-])cc2)C1 [WO2025064535, Compound 81]",3.7 nM,–,12 nM
"C[C@@H](C(=O)Nc1nc2cc3c(cc2s1)OC(F)(F)O3)N1CCC(F)(F)[C@H](c2c[nH]c(=O)c(CN)c2)C1 [WO2025064535, Compound 85]",36 nM,82 nM,130 nM

# Results, then the compound that gave them:
IC50 [1],IC50 [2],IC50 [3],Structure (SMILES)
> 30000 nM,–,> 3000 nM,"CNCc1cc([C@H]2CN([C@@H](C)C(=O)Nc3nc4cc5c(cc4s3)OC(F)(F)O5)CCC2(F)F)c[nH]c1=O [WO2025064535, Compound 86]"
41 nM,–,223 nM,"CNCc1cc([C@@H]2CN([C@@H](C)C(=O)Nc3nc4cc5c(cc4s3)OC(F)(F)O5)CCC2(F)F)c[nH]c1=O [WO2025064535, Compound 87]"
1940 nM,–,> 3000 nM,"C[C@@H](C(=O)Nc1nc2cc3c(cc2s1)OC(F)(F)O3)N1CCC(F)(F)[C@@H](c2c[nH]c(=O)c(CO)c2)C1 [WO2025064535, Compound 88]"
30 nM,66 nM,215 nM,"C[C@@H](C(=O)Nc1nc2cc3c(cc2s1)OC(F)(F)O3)N1CCC(F)(F)[C@H](c2c[nH]c(=O)c(CO)c2)C1 [WO2025064535, Compound 89]"
> 17300 nM,–,> 3000 nM,"C[C@@H](C(=O)Nc1nc2cc3c(cc2s1)OC(F)(F)O3)N1CCC(F)(F)[C@@H](c2c[nH]c(=O)c(CO)n2)C1 [WO2025064535, Compound 90]"
36 nM,68 nM,233 nM,"C[C@@H](C(=O)Nc1nc2cc3c(cc2s1)OC(F)(F)O3)N1CCC(F)(F)[C@H](c2c[nH]c(=O)c(CO)n2)C1 [WO2025064535, Compound 91]"
87 nM,–,346 nM,"CNCc1cc([C@@H]2CN([C@@H](C)C(=O)Nc3nc4cc5c(cc4s3)OC(F)(F)O5)CCC2(F)F)cc[n+]1[O-] [WO2025064535, Compound 102]"
49 nM,101 nM,586 nM,"C[C@@H](C(=O)Nc1nc2cc3c(cc2s1)CCC3)N1CCC(F)(F)[C@H](c2c[nH]c(=O)c(CO)c2)C1 [WO2025064535, Compound 107]"
